# Assays:
# [1] = target: Phosphatidylinositol 4,5-bisphosphate 3-kinase catalytic subunit gamma isoform (Homo sapiens, UniProt P48736); test: Inhibition of PI3Kgamma by kinobeads assay
# [2] = target: Phosphatidylinositol 4,5-bisphosphate 3-kinase catalytic subunit alpha isoform (Homo sapiens, UniProt P42336); test: Inhibition of PI3Kalpha assessed as change in pIC50 by kinobeads assay
# [3] = target: Phosphatidylinositol 4,5-bisphosphate 3-kinase catalytic subunit beta isoform (Homo sapiens, UniProt P42338); test: Inhibition of PI3Kbeta assessed as change in pIC50 by kinobeads assay
# Sequence of Phosphatidylinositol 4,5-bisphosphate 3-kinase catalytic subunit beta isoform (P42338 whole entry, canonical isoform): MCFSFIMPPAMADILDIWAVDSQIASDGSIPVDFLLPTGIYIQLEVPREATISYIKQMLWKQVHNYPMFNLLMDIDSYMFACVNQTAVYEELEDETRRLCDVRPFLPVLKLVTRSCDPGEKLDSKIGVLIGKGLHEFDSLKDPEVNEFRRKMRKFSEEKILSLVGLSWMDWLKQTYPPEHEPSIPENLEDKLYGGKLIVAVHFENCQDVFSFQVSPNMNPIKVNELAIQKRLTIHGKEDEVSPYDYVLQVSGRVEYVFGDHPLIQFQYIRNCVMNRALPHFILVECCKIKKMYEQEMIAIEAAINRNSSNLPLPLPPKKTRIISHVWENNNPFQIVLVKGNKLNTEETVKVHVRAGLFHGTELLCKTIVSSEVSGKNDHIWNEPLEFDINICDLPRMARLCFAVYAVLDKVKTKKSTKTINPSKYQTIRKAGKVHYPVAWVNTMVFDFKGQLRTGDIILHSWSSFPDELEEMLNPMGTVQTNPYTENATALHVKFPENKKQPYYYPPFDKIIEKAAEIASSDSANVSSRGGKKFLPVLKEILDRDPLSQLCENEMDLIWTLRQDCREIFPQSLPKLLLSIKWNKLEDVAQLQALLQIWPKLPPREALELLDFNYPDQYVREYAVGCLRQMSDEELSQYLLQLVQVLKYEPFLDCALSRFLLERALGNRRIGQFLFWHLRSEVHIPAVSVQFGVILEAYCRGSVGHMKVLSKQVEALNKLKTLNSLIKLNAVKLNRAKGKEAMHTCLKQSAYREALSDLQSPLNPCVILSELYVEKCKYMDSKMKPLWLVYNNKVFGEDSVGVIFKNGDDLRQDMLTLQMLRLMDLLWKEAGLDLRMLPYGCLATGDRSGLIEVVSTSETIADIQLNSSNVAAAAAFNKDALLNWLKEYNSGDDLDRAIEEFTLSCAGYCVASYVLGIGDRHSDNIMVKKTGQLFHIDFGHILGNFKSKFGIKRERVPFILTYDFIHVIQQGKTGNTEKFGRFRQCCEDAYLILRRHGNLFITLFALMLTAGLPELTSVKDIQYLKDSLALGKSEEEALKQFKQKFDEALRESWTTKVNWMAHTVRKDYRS
# [4] = target: T1, Phosphatidylinositol 4,5-bisphosphate 3-kinase catalytic subunit delta isoform (Homo sapiens, UniProt O00329); test: Inhibition of PI3Kdelta assessed as change in pIC50 by kinobeads assay
# T1 sequence (O00329 whole entry): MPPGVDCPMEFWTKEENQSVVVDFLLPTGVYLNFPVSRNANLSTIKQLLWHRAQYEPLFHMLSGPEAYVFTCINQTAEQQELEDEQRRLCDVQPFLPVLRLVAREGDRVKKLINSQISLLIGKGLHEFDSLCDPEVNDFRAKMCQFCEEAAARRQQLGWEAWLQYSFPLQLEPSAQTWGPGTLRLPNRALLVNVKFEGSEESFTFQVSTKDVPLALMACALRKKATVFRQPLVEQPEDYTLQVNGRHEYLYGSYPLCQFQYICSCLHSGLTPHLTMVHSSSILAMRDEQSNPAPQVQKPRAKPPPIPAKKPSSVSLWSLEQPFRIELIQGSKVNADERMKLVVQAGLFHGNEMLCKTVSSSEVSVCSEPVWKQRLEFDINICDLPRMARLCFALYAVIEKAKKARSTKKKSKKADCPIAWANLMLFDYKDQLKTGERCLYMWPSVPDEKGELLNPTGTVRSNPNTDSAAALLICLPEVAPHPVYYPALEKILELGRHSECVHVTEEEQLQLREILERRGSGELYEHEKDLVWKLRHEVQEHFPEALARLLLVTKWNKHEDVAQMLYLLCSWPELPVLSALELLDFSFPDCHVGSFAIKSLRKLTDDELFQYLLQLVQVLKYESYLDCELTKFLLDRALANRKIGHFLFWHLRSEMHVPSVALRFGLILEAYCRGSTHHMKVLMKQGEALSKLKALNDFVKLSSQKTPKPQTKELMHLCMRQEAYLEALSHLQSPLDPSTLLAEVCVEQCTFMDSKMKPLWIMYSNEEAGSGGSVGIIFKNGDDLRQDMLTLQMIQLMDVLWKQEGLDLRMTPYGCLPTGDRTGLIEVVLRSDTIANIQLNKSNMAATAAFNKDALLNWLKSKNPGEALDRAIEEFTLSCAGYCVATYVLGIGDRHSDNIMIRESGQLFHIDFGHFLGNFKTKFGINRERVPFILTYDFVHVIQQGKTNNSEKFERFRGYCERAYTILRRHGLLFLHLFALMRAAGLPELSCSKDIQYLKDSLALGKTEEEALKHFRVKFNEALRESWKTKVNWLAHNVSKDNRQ
# [5] = tested on: Mus musculus; test: Antiinflammatory activity in mouse IL-8-induced air-pouch model assessed as inhibition of granulocyte migration at 3 mg/kg, po; design: scale not given: the % may be the effect or the level left
# [6] = target: Phosphatidylinositol 4,5-bisphosphate 3-kinase catalytic subunit delta isoform/gamma isoform (Homo sapiens, UniProt P48736+O00329); test: Inhibition of PI3Kgamma/delta by neutrophil migration assay
# [7] = tested on: Hepatocyte; test: Metabolic stability in human hepatocytes measured per gram of tissue; assay type: ADME, cell-based
# [8] = tested on: Hepatocyte; test: Metabolic stability in rat hepatocytes measured per gram of tissue; assay type: ADME, cell-based
# [9] = tested on: Hepatocyte; test: Metabolic stability in mouse hepatocytes measured per gram of tissue; assay type: ADME, cell-based
# [10] = tested on: Liver microsomes; test: Volume of distribution at steady state […] at 5 mg/kg, po; assay type: ADME, organism-based; design: dose 5 mg/kg, route oral
# [11] = Half life in rat […] at 5 mg/kg, po; assay type: ADME, organism-based; design: dose 5 mg/kg, route oral
# [12] = Cmax in rat […] at 5 mg/kg, po; assay type: ADME, organism-based; design: dose 5 mg/kg, route oral
# [13] = AUC in rat […] at 5 mg/kg, po; assay type: ADME, organism-based; design: dose 5 mg/kg, route oral
# [14] = Oral bioavailability in Wistar rat at 5 mg/kg; details: in vivo
# Sequence of Phosphatidylinositol 4,5-bisphosphate 3-kinase catalytic subunit gamma isoform (P48736 whole entry, canonical isoform): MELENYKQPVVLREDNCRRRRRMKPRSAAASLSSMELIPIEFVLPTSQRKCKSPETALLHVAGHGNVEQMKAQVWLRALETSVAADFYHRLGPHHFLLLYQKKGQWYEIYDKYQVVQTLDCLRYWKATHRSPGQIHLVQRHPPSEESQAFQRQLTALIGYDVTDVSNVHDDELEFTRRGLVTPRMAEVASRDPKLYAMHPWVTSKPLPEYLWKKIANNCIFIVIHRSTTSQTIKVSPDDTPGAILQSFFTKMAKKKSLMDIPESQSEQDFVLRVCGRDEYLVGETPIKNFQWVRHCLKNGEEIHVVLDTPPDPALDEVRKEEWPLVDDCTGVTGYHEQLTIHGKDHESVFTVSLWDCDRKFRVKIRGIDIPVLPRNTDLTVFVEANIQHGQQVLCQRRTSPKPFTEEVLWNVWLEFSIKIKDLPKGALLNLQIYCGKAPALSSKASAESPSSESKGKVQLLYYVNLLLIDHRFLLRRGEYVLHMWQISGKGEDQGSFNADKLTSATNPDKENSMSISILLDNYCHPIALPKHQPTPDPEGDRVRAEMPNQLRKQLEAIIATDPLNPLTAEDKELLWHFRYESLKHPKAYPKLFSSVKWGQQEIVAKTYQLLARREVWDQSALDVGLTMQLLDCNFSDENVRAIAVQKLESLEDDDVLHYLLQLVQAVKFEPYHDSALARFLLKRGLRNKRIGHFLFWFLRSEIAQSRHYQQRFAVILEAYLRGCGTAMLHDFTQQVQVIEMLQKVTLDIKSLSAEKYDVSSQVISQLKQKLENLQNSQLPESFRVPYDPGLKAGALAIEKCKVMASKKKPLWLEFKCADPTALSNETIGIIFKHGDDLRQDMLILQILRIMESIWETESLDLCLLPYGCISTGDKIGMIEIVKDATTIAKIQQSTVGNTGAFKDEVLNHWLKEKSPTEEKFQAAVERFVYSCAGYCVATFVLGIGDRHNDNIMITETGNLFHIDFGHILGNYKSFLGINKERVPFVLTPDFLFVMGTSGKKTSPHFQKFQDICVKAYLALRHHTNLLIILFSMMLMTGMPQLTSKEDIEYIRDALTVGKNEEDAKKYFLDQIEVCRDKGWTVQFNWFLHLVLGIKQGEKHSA
# Sequence of Phosphatidylinositol 4,5-bisphosphate 3-kinase catalytic subunit alpha isoform (P42336 whole entry, canonical isoform): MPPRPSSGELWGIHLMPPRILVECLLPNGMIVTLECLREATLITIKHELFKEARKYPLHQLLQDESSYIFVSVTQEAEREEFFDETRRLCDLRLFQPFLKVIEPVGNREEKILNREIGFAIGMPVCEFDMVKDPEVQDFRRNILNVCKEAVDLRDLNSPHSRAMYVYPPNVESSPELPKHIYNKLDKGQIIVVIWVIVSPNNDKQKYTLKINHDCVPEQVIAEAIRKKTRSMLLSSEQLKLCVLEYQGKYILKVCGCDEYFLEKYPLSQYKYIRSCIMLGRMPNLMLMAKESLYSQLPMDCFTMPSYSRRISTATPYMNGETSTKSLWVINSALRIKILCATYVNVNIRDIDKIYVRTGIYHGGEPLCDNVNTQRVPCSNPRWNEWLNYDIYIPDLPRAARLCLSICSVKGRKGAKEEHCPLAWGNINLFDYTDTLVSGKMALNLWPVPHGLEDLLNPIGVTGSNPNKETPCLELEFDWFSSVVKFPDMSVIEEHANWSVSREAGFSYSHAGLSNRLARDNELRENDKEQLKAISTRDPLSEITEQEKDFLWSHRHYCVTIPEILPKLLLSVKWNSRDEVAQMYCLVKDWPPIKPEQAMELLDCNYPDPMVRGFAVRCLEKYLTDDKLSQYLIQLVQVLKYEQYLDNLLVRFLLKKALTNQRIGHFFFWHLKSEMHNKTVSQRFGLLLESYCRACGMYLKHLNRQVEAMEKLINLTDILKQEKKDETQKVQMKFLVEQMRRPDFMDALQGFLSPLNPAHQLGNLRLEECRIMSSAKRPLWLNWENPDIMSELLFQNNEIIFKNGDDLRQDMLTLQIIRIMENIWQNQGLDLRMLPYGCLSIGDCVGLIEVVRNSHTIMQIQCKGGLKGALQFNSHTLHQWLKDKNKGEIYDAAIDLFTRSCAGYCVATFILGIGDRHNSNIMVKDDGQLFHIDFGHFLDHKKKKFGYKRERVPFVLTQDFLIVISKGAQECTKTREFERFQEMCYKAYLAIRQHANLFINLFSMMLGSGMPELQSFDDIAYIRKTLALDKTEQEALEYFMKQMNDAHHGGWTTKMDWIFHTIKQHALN
IC50 [1] [µM],pIC50 [6],SMILES,further results
0.0794,–,CS(=O)(=O)c1cncc(-c2ccn3nc(N)nc3c2)c1,–
0.0316,6.2,CCCNS(=O)(=O)c1cncc(-c2ccn3nc(N)nc3c2)c1,IC50 [4]: < 20000 µM
0.0251,6.3,CC(C)NS(=O)(=O)c1cncc(-c2ccn3nc(N)nc3c2)c1,–
0.00794,5.9,CCN(CC)S(=O)(=O)c1cncc(-c2ccn3nc(N)nc3c2)c1,–
0.0251,5.7,CC1(C)CCN1S(=O)(=O)c1cncc(-c2ccn3nc(N)nc3c2)c1,–
0.02,6.1,Nc1nc2cc(-c3cncc(S(N)(=O)=O)c3)ccn2n1,–
0.0251,6.3,CNS(=O)(=O)c1cncc(-c2ccn3nc(N)nc3c2)c1,Vdss [10]: 2.2 L/kg; half-life [11]: 1.2 h; Cmax [12]: 5 µM; AUC [13]: 6.7 µM·h; bioavailability [14]: 56%

# Second part, the compound before the results:
SMILES,IC50 [1] [µM],pIC50 [6],further results
CC(C)(C)NS(=O)(=O)c1cncc(-c2cc(F)c3nc(N)nn3c2)c1,0.0251,–,IC50 [2]: > 10 µM; IC50 [3]: 1 µM; IC50 [4]: 7.94 µM; Activity [5]: 29%
CC(C)(C)NS(=O)(=O)c1cncc(-c2cc(F)n3nc(N)nc3c2)c1,0.0158,6.1,CLint [7]: 2.5 mL/min/g; CLint [8]: 7.5 mL/min/g; CLint [9]: 36.1 mL/min/g
Nc1nc2cc(-c3cncc(S(=O)(=O)NCC(F)(F)F)c3)ccn2n1,0.02,5.9,–
CC(C)(NS(=O)(=O)c1cncc(-c2ccn3nc(N)nc3c2)c1)C(F)(F)F,0.02,5.6,–
Nc1nc2cc(-c3cncc(S(=O)(=O)Nc4ccccc4)c3)ccn2n1,0.0398,5,–
Nc1nc2cc(-c3cncc(S(=O)(=O)NCc4ccccc4)c3)ccn2n1,0.1,–,–

# Reference: ChEMBL document CHEMBL2203257 (Bioorg Med Chem Lett, 2012)
